Measurements: ChEMBL document CHEMBL5154747, “Discovery of new carbonic anhydrase IX inhibitors as anticancer agents by toning the hydrophobic and hydrophilic rims of the active site to encounter the dual-tail approach” (Eur J Med Chem, 2022)

How the values were obtained:
Type in all cases: functional
Details in all cases: read-out: GI
MCF7 = assay: Anticancer activity against human MCF7 cells assessed as cell growth inhibition at 10 uM incubated for 48 hrs by SRB assay relative to control
OVCAR-4 = assay: Anticancer activity against human OVCAR-4 cells assessed as cell growth inhibition at 10 uM incubated for 48 hrs by SRB assay relative to control
A549 = assay: Anticancer activity against human A549 cells assessed as cell growth inhibition at 10 uM incubated for 48 hrs by SRB assay relative to control
NCI/ADR-RES = assay: Anticancer activity against human NCI/ADR-RES cells assessed as cell growth inhibition at 10 uM incubated for 48 hrs by SRB assay relative to control
MDA-MB-435 = assay: Anticancer activity against human MDA-MB-435 cells assessed as cell growth inhibition at 10 uM incubated for 48 hrs by SRB assay relative to control
PC-3 = assay: Anticancer activity against human PC-3 cells assessed as cell growth inhibition at 10 uM incubated for 48 hrs by SRB assay relative to control
TK-10 = assay: Anticancer activity against human TK-10 cells assessed as cell growth inhibition at 10 uM incubated for 48 hrs by SRB assay relative to control
NCI-H226 = assay: Anticancer activity against human NCI-H226 cells assessed as cell growth inhibition at 10 uM incubated for 48 hrs by SRB assay relative to control
NCI-H322M = assay: Anticancer activity against human NCI-H322M cells assessed as cell growth inhibition at 10 uM incubated for 48 hrs by SRB assay relative to control
BT-549 = assay: Anticancer activity against human BT-549 cells assessed as cell growth inhibition at 10 uM incubated for 48 hrs by SRB assay relative to control
UACC-257 = assay: Anticancer activity against human UACC-257 cells assessed as cell growth inhibition at 10 uM incubated for 48 hrs by SRB assay relative to control
MOLT-4 = assay: Anticancer activity against human MOLT-4 cells assessed as cell growth inhibition at 10 uM incubated for 48 hrs by SRB assay relative to control
SF-268 = assay: Anticancer activity against human SF-268 cells assessed as cell growth inhibition at 10 uM incubated for 48 hrs by SRB assay relative to control
SK-MEL-2 = assay: Anticancer activity against human SK-MEL-2 cells assessed as cell growth inhibition at 10 uM incubated for 48 hrs by SRB assay relative to control
MDA-MB-231 = assay: Anticancer activity against human MDA-MB-231 cells assessed as cell growth inhibition at 10 uM incubated for 48 hrs by SRB assay relative to control
A498 = assay: Anticancer activity against human A498 cells assessed as cell growth inhibition at 10 uM incubated for 48 hrs by SRB assay relative to control
SF-295 = assay: Anticancer activity against human SF-295 cells assessed as cell growth inhibition at 10 uM incubated for 48 hrs by SRB assay relative to control
KM12 = assay: Anticancer activity against human KM12 cells assessed as cell growth inhibition at 10 uM incubated for 48 hrs by SRB assay relative to control
DU-145 = assay: Anticancer activity against human DU-145 cells assessed as cell growth inhibition at 10 uM incubated for 48 hrs by SRB assay relative to control
HOP-62 = assay: Anticancer activity against human HOP-62 cells assessed as cell growth inhibition at 10 uM incubated for 48 hrs by SRB assay relative to control

| Structure (SMILES) | inhibition of growth at 10 µM (MCF7) [%] | inhibition of growth at 10 µM (OVCAR-4) [%] | inhibition of growth at 10 µM (A549) [%] | inhibition of growth at 10 µM (NCI/ADR-RES) [%] | inhibition of growth at 10 µM (MDA-MB-435) [%] | inhibition of growth at 10 µM (PC-3) [%] | inhibition of growth at 10 µM (TK-10) [%] | inhibition of growth at 10 µM (NCI-H226) [%] | inhibition of growth at 10 µM (NCI-H322M) [%] | inhibition of growth at 10 µM (BT-549) [%] | inhibition of growth at 10 µM (UACC-257) [%] | inhibition of growth at 10 µM (MOLT-4) [%] | inhibition of growth at 10 µM (SF-268) [%] | inhibition of growth at 10 µM (SK-MEL-2) [%] | inhibition of growth at 10 µM (MDA-MB-231) [%] | inhibition of growth at 10 µM (A498) [%] | inhibition of growth at 10 µM (SF-295) [%] | inhibition of growth at 10 µM (KM12) [%] | inhibition of growth at 10 µM (DU-145) [%] | inhibition of growth at 10 µM (HOP-62) [%] |
| --- | --- | --- | --- | --- | --- | --- | --- | --- | --- | --- | --- | --- | --- | --- | --- | --- | --- | --- | --- | --- |
| NS(=O)(=O)c1ccc(Nc2nc(N/N=C/c3ccc(Cl)cc3)nc(Nc3ccccc3)n2)cc1 | 61 | 16 | 37 | < 10 | 42 | 48 | < 10 | 18 | < 10 | 25 | 10 | 98 | 26 | 18 | 13 | 23 | 41 | 36 | 27 | 16 |
| NS(=O)(=O)c1ccc(Nc2nc(N/N=C/c3ccc4c(c3)OCO4)nc(Nc3ccccc3)n2)cc1 | 81 | 44 | 25 | < 10 | 40 | 40 | < 10 | 34 | 38 | 23 | 15 | 88 | 57 | 44 | 40 | 48 | 35 | 29 | 58 | 70 |
| NS(=O)(=O)c1ccc(Nc2nc(N/N=C/C=C/c3ccccc3)nc(Nc3ccccc3)n2)cc1 | 84 | 50 | 30 | < 10 | 48 | 52 | 13 | 41 | 43 | 34 | 20 | 87 | 53 | 55 | 52 | 59 | 55 | 44 | 57 | 43 |
